According to patent US12678518B2, “Theranostic probe and its use for targeting and/or labeling the EGFR kinase and/or the cells expressing EGFR or its family members” (Tianjin University, priority 2019, dated 2026):

How the values were obtained:
[1] = test system: cells in void urine samples from prostate cancer patients; assay: Cytometry of urine samples from cancer patients; assay type: cell-based, human; details: for highest relative bound fraction from other samples: other subjects
Procedure: Cytometry of urine samples from cancer patients. 10-15 mL void urine sample was collected from each cancer patient. The cells in those samples were collected by centrifugation at […] for 10 minutes at 4° C., and were re-suspended in PBS. Then, the cells from each sample were divided into three aliquots: one was used in cytometry; another was used in RT-qPCR; and the rest was mixed with cryo-protectant (80% FBS and 20% DMSO) at 1:1 ratio, and stored in liquid nitrogen. The cells used for cytometry were incubated with 0, 0.5, 1, and 5 μM PDCy3, respectively, on ice for 20 minutes in the dark, and then were analyzed by flowcytometry.
The urine samples were labeled with 0.0, 0.5, 1.0, and 5.0 μM probe, respectively, at 4° C. for half an hour, and then were subjected to FACS analysis. Different cell populations could be distinguished by their side scattering and fluorescent intensity of bound probes (FIG. 6A). […] At 0.5 μM of the probe, the relative bound probe to this sample was 13.6 times higher than the average of others. In addition, the fractions of bound probe at […] relative to the one at 5.0 μM concentration were 0.28 and 0.30, respectively. In contrast, the highest relative bound fractions at 0.5 and 1.0 μM probe from other samples were 0.1 and 0.16, respectively.

[2] = target: T1, EGFR wild type (Homo sapiens, UniProt P00533); assay: Flowcytometry of PDCy3 binding to EGFR-transfected HEK293T cells (cell sorting); assay type: cell-based
T1 construct: plasmids encoding human EGFR (1-988) and split YFP fragments; host or cells: HEK 293T
Procedure: (§1) Cell sorting. […] After 30-minute incubation on ice, cells were washed twice with 500 μl/well PBS, and were re-suspended in 400 l PBS. Then, 0.3 μl FITC-labelled secondary antibody at a concentration of 2 mg/ml was added to each sample. After incubation on ice for 30 minutes, cells were washed three times with PBS, re-suspended in 400 μl/well PBS, and analyzed by flowcytometry using a BD FACS Calibur machine.
The binding abilities of the PDCy3 probe to EGFR-expressed cells were compared by flowcytometry under different conditions.
We compared the efficiencies in labelling EGFR over-expressed cells versus those non-over-expressed cells under different PDCy3 concentrations (FIG. 3A).
as §1, with “500 μL/well” for “500 μl/well”, “400 μL” for “400 l”, “0.3 μL” for “0.3 μl”, “2 mg/mL” for “2 mg/ml”, “400 μL/well” for “400 μl/well”, “by floweytometry” for “by flowcytometry”
The binding abilities of PDCy3 to EGFR-expressed and non-expressed cells were compared by flowcytometry under different conditions.
To characterize the specificity of PDCy3, we compared the efficiencies in labelling EGFR over-expressed cells versus those non-over-expressed cells under different PDCy3 concentrations (FIG. 3A).

SMILES: CN1/C(=C/C=C/C2=[N+](CCCCCC(=O)NCCC/C=C/C(=O)Nc3ccc4ncnc(Nc5cccc(Br)c5)c4c3)c3ccc(S(=O)(=O)O)cc3C2(C)C)C(C)(C)c2cc(S(=O)(=O)[O-])ccc21 [PDCy3, 1-(6-((E)-6-(4-(3-bromophenylamino)quinazolin-6-ylamino)-6-oxohex-4-enylamino)-6-oxohexyl)-3,3-dimethyl-2-((1E,3E)-3-(1,3,3-trimethyl-5-sulfonatoindolin-2-ylidene)prop-1-enyl)-3H-indolium-5-sulfonate]
- relative bound probe, sample of subject 4 versus the average of others ([1]; 0.5 μM probe): 13.6 times
- highest relative bound fraction from other samples ([1]; 0.5 μM probe): 0.1
- highest relative bound fraction from other samples ([1]; 1.0 μM probe): 0.16
- fraction of bound probe relative to the one at 5.0 μM concentration ([1]; subject 4, 0.5 μM probe): 0.28
- fraction of bound probe relative to the one at 5.0 μM concentration ([1]; subject 4, 1.0 μM probe): 0.30
- effect of EGF treatment on binding of PDCy3 to EGFR-expressed cells ([2]; 10 nM EGF): did not enhance
- EGFR positive cells labeled by the probe ([2]; 1 μM PDCy3, transfected HEK293T cells): over 84.9%
- sensitivity of transfected cells to PDCy3 in flowcytometry ([2]; 293T cells transfected with the WT receptor): high sensitivity
- population of EGFR-expressed, PDCy3 positive cells ([2]; in the presence of EGF (10 nM), 1 μM PDCy3, no gefitinib): 45.4%
- fraction of EGFR-expressed, PDCy3 positive cells relative to the total EGFR-expressed cells ([2]; in the presence of EGF, no gefitinib): 24.9%
- relative bound PDCy3 ([2]; in the presence of EGF, no gefitinib, mean fluorescent intensity times fraction of PDCy3+/EGFR+ cells): 45.4 a.u.
- population (fraction) of PDCy3-bound, EGFR positive cells ([2]; wild type EGFR, 1 μM PDCy3): 52.4%
